Consider one compound from patent publication US7649095B2, “Piperidine derivatives and agent comprising the derivative as active ingredient” (Ono Pharmaceutical Co., Ltd., priority 2003, dated 2010).

For the assay, the target named is PDE4. As to the kind of experiment: In vitro enzyme assay: PDE4 inhibitory activity. The class given is biochemical. The following applies: PDE4 enzyme solution from U937 cells (originated from human monocyte), 3H-cAMP substrate, room temperature 30 minutes. How it is done:
U937 cells (originated from human monocyte) were cultured in PRMI 1640 medium containing 10% fetal bovine serum. The U937 cells were harvested and homogenized in 20 mM Tris-HCl buffer [pH 8.0, containing PMSF (1 mM), leupeptin (1 μg/ml) and pepstatin A (1 μg/ml)]. After centrifugation (at 15,000 rpm for 10 minutes), the supernatant was recovered and filtered through a 0.45 μm filter. The sample was applied to MonoQ (manufactured by Pharmacia, strong anion exchange resin) column and eluted by a density gradient of 0 to 0.8 M NaCl. Fractions from which the PDE activity was disappeared by 10 μM rolipram (a PDE4-selective inhibitor) were recovered and used as the enzyme solution for the measurement of PDE4 inhibitory activity.
The enzyme activity was measured by the following method. […] To an alumina column (100 μl), 50 μl of the supernatant was applied, eluted with 80 μl of 0.005 N hydrochloric acid, and radioactivity of the eluate was measured.
PDE4 inhibitory activity ratio of the compound of the present invention was calculated by the following equation: PDE4 inhibitory activity ratio (%)=(1−radioactivity in the presence of the compound of the present invention/radioactivity in the absence of the compound of the present invention)×100 […]

Counter-ions that a name gives are not always drawn.

For orientation: IC50 means the concentration at which inhibition is half-maximal. Read a low IC50 as greater potency.

Compound `COc1ccc(C2(C#N)CCN(CC(=O)NO)CC2)cc1OC1CCCC1` [Example 3, N-hydroxy-2-(4-(3-cyclopentyloxy-4-methoxyphenyl)-4-cyanopiperidin-1-yl)acetamide·hydrochloride] came in with an IC50 of 30 pM.
